Measured values: patent US12714682B2, “Calixarene compounds and uses thereof” (UNIVERSITÄT WIEN, priority 2019, dated 2026)

How the values were obtained:
Osteopontin (OPN) = experiment: 15N-1H HSQC NMR binding to osteopontin; conditions: HS compared with SCA-744
Procedure: In order to verify the predicted heparan sulfate mimicking activity of SCA-744, its physical interaction was probed with a prototypical HS-binding protein Osteopontin (OPN), a component of the extracellular matrix (ECM). To this end, NMR spectroscopy was used to directly probe the interaction and map the location of the interaction site along the protein backbone. The experimental strategy was as follows: First, ^15N-labelled OPN was prepared following well-established molecular biology technology techniques. Individual residue positions are directly monitored via the so-called ^15N-^1H Heteronuclear Single-Quantum Coherence (HSQC) spectroscopy, where individual cross peaks in the two-dimensional (2D) frequency spectrum corresponds to individual residue positions (amino acids) of the protein. Ligand binding changes the chemical environment of residues located in the binding site and leads to a change in the HSQC spectrum. Since the signal assignment is available, the residue positions which are affected by ligand binding can easily be identified by comparing HSQC spectra of the apo (ligand-free) and ligand-bound state of the protein (FIG. 7A). […] It is very convenient to analyze the chemical shift changes (induced by ligand binding) as a function of residue positions (FIG. 7B,C). Residues that display the largest chemical shift changes are typically part of the binding interface. […] Therefore, it can be concluded that SCA-744 and HS share the same ligand interaction sites and therefore are in competition for binding.

neuroblastoma cells = experiment: Protection from MPP+ induced oxidative stress, CellTiter-Glo viability; assay type: cell-based; conditions: for protection from MPP+ induced apoptosis / damage: 0.1-1000 μM, 12 h
Procedure: Several in-vivo and in-vitro studies find that MPP+ exerts oxidative stress on cells^22. MPP+×toxicity is based on its uptake into dopaminergic neurons. MPP+ accumulate into the mitochondria, inhibiting the complex-I leading to ATP depletion, increased reactive oxygen species (ROS) production, and apoptotic cell death^23. 12 h following MPP+ treatment and SCA-744 and CAL-X incubation, cell viability was assessed using a standard ATP method, CellTiter-Glo® Luminescent Cell Viability Assay.

[1] = Cytotoxicity, CellTiter-Glo cell viability; assay type: cell-based; conditions: human, HEK 293 cells (printed as HEK 293 neuroblastoma cell lines), 72 h treatment, read-out: EC50 cytotoxicity (cell viability, ATP)
Procedure: FIG. 19.: In-vitro assessment of SCA-744 (A) and SCA-754 (B) cytotoxicity. Experiments were performed using HEK 293 […] cell lines. The effect of SCA-744 and SCA-754 on cell viability was assessed using a standard ATP, CellTiter-Glo® Luminescent Cell Viability Assay following 72 hours treatment.
In vitro assessment of cytotoxicity of SCA-744 and SCA-754 in mammalian cells. 72 h following SCA-744 and SCA-754-treatment, cell viability was assessed using a standard ATP method, CellTiter-Glo® Luminescent Cell Viability Assay.

[2] = test system: THP-1 human monocytic cell line; experiment: LPS-stimulated THP-1 macrophage cytokine production (LEGENDplex); assay type: cell-based; conditions: 10 ng/ml LPS; 30 and 150 μM; FIG. 3
Procedure: A specific anti-inflammatory effect or activity of a compound is proven, if the compound can decrease the production of one of IL-1B, IL-6 and TNFα in human THP1 macrophages following LPS stimulation, as determined by a standard assay: THP-1 human monocytic cell lines are treated with 100 nM of Phorbol 12-myristate 13-acetate (PMA) for 48 h to induce mature macrophage-like state. Cells are then stimulated with 100 ng/ml of LPS in the absence and presence of 500 μM of compound. After 6 hours, supernatants of treated and untreated cells are collected, and cytokine levels determined using the Human Inflammatory panel LEGENDplex Human Pro-inflammatory Chemokine Panel (Cat. No. 740118). A positive result is considered if the compound is capable of reduce or block the production of IL-1β, IL-6, and TNFα in human THP1 macrophages after LPS stimulation.
Following cells were treated with [10 ng/ml] LPS in the absence and presence 10, 100 and 500 μM of SCA-744. Cytokine levels were determined by LEGENDplex™ Human Inflammation Panel assay from BioLegend. The bar heights represent the concentration means compared to LPS alone of 3 independent experiments carried out in triplicates.
Cells were treated with 100 nM of Phorbol 12-myristate 13-acetate (PMA) for 48 h to induce mature macrophage-like state. Cells were then stimulated with 100 ng/ml of Lipopolysaccharides (LPS) in the absence and presence of 500 μM of SCA-744. After 6 hours, supernatants of treated and untreated cells were collected and the levels of three major pro-inflammatory cytokines TNF-α, IL-6 and IL-1ß were determined using the Human Inflammatory panel of LEGENDPLEX Multi-Analyte Flow assay.

Row | binding sites on OPN (chemical shift changes by residue) (Osteopontin (OPN)) | Molecule | MPP+ protection relative to SCA-744 (neuroblastoma cells; 0.2 μM versus 1 μM) | protection from MPP+ induced apoptosis / damage (neuroblastoma cells) | protection from MPP+ induced apoptosis / damage (neuroblastoma cells; listed as CAL-X) | concentration for MPP+ protection (neuroblastoma cells; 12 h following MPP+ treatment, CellTiter-Glo) | EC50 at 72 h [1] | inhibition of LPS-induced TNF-α, IL-ß and IL-6 [2]
1 | overlapping binding sites | heparan sulfate [HS, reference compound] | – | – | – | – | – | –
2 | – | Cc1cc2c(O)c(c1)Cc1cc(S(=O)(=O)O)cc(c1O)Cc1cc(S(=O)(=O)O)cc(c1O)Cc1cc(S(=O)(=O)O)cc(c1O)C2 [SCA-754, Trisodium 25,26,27,28-tetrahydroxycalix(4)arene-23-methyl-5,11,17-trisulfonate] | 5 × times | protects against oxidative stress from MPP+ induced damage | protected neuroblastoma cells from MPP+ induced apoptosis | 0.2 µM | 1000 µM | Dose-dependent inhibition
